# Patent US10143771B2, “Antioxidant and antimicrobial wound dressing materials” (KCI USA, Inc., priority 2003, dated 2018)
# Columns and labels:
# [1] = test system: Staphylococcus aureus; test: Zone of inhibition test, Procedure 2; format: cell-based; settings: Staphylococcus aureus on DSA plates, 37° C., over the test period (every 24 hours for 72 hours)
# Experimental: (§1) Six 2 cm×2 cm squares of each sample are cut out in sterile conditions. On day one of the experiment, cultures of both Pseudomonas aeruginosa (ATCC 27853 and various PSI strains) and Staphylococcus aureus (provided by the Dept of Clinical Microbiology and Pathology) are incubated aerobically at 37° C. for 24 hours on Diagnostic Sensitivity Agar (DSA). After 24 hours test samples are each placed on a DSA plate and immediately wetted with 0.5 mls of a buffer solution. Three squares of sample are placed on plates inoculated with Pseudomonas aeruginosa and three are placed on plates inoculated with Staphylococcus aureus. The plates are then incubated at 37° C. for 24 hours. The zone of inhibited growth around the sample is then measured using calipers, and the test sample is placed on a new inoculated DSA plate. A swab test is carried out on the area beneath the sample to determine if the sample is bacteriostatic if not bactericidal by smearing the swab on a DSA plate and incubating it for 24 hours and then examining the growth.
# [2] = test system: Pseudomonas aeruginosa (ATCC 27853 and various PSI strains); test: Zone of inhibition test, Procedure 2; format: cell-based; settings: Pseudomonas aeruginosa on DSA plates, 37° C., over the test period (every 24 hours for 72 hours)
# Experimental: as §1
structure (smiles),measurement,setting,value
"O=[N+]([O-])[O-].[Ag+] [silver nitrate solution (0.5%), silver nitrate]",zone of inhibition,[1],zones of inhibition were observed
same,zone of inhibition,[2],zones of inhibition were observed
